Where two headings read alike, the source gives them in different places.
Assays:
Type in all cases: cell-based
[1] = system: HIV-1 from patient plasma on GHOSTX4R5 cells; details: for number of patients whose virus infected GHOSTX4R5 cells: of 5 patients
Procedure: Matched patient blood samples were collected from HIV-1 positive, viraemic individuals, in sodium heparin, ACD and EDTA blood tubes.
To prepare a viral isolate pellet, plasma was diluted 1 in 2 (to a final volume of 800 μL) and layered over a 20% v/v sucrose cushion. The plasma was centrifuged at 17,000×g for 2 hours at 4° C. The supernatant was aspirated and the viral pellet was resuspended in 50 μL media as follows: • Sodium heparin samples: • Resuspended in GHOST media. • ACD samples: • One sample resuspended in GHOST media. • One sample resuspended in GHOST media plus Heparin at 20 U/mL. • One sample resuspended in GHOST media plus EDTA* • EDTA samples: • One sample resuspended in GHOST media. • One sample resuspended in GHOST media plus Heparin at 20 U/mL. • One sample resuspended in GHOST media plus ACD*
*ACD and EDTA were obtained by filling collection tubes with 9 mL of GHOST media. This media was then used undiluted to resuspend the pellet.
All samples contained Polybrene at 2 μg/mL.
Samples were added to GHOSTX4R5 cells which had been seeded the night before in a 96-well flat-bottomed TC plate at 10,000 cells/well. The cells were subjected to Spinoculation—centrifugation at 1200×g for 2 hours at room temperature. The volume of media was increased to 150 μL with GHOSTX4R5 media and the cells were incubated for 5 days.
The cells were washed in PD, detached from the plate with Trypsin-EDTA, washed 2× in FACS wash and fixed with FACS Fix. The cells were then analyzed by flow cytometry for GFP expression as an indication of HIV-1 infection. Cells infected with HIV-1 lab strains 89.6, NL4-3 and AD8 were run concurrently as positive controls for infection. Uninfected cells were analyzed as a negative/background control.

[2] = system: HIV-1 from patient plasma on TZMbl cells; assay: Infection of TZMbl indicator cells with virus pelleted from patient plasma (Example 2); details: samples in DMEM-10 (n=9), plasma collected in the named anti-coagulant
Procedure: (§1) Blood is collected from HIV-1-infected individuals in sodium heparin, anti-coagulant citrate dextrose (ACD) a ethylenediamine tetraacetic acid (EDTA) and/or any other anti-coagulant blood tubes. The plasma isolated from each tube is stored at −80° C. until use.
To pellet the virus, plasma was diluted 1 in 2 (to a final volume of 800 μL) and layered over a 20% w/v sucrose cushion. The plasma was centrifuged at 17,000×g for 2 hours at 4° C. […]
Samples are also resuspended in DMEM-10 media and added to TZMbl cells. […] Upon integration of the host genome with the HIV-1 genome, these two genes are expressed and can be measured (NIH AIDS Research and Reference Reagent Program, Division of AIDS, NIAID, NIH (Derdeyn et al. Journal of Virology 74:8358-8367, 2000; Platt et al. Journal of Virology 72:2855-2864, 1998; Wei et al. Antimicrobial Agents and Chemotherapy 46:1896-1905, 2002). Following HIV infection of TZMbls, there is an increase in β-gal expression over the next 5 days. Infection is most simply measured by counting the number of cells that express β-gal (or are blue). The maximum number of blue cells that can be counted by this assay is 300 cells. […]
At day 5 post-infection, GHOST cells are washed in phosphate buffered saline (PBS), detached from the plate with Trypsin-EDTA, washed twice in FACS wash and fixed with FACS Fix. […] Uninfected cells are analyzed as a negative/background control.

[3] = system: HIV-1 from patient plasma on GHOSTX4R5 cells
Procedure: as §1
To pellet the virus, plasma was diluted 1 in 2 (to a final volume of 800 μL) and layered over a 20% w/v sucrose cushion. The plasma was centrifuged at 17,000×g for 2 hours at 4° C. The supernatant was aspirated and the viral pellet (viral isolate) was resuspended in 50 μL of GHOST media (Dulbecco's Modified Eagle's Medium (DMEM, Invitrogen, Auckland, NZ), 10% v/v Cosmic calf serum (Quantum Scientific, Milton, Qld), 1× Penicillin/Streptomycin/Glutamine (Invitrogen), 1 μg/mL Puromycin (Sigma, St. Louis, Mo.), 100 μg/mL Hygromycin (Sigma), 500 μg/mL G418 (AG Scientific, San Diego, Calif.)) or DMEM-10 (DMEM, 10% v/v Cosmic calf serum) in the presence and absence of Heparin (20 U/mL, David Bull Laboratories, Melbourne, Australia). All samples contain polybrene at 2 μg/mL. Samples resuspended in DMEM-10 contain 40 μg/mL DEAE-Dextran.
Samples were resuspended in GHOST media and added to GHOSTX4R5 cells which have been seeded 24 hours previously in a 96-well flat-bottomed plate at 10,000 cells/well. GHOSTX4R5 cells are an adherent cell line derived from human osteosarcoma (HOS cells). They are stably transfected with the HIV-2 LTR driving hGFP construct and express green fluorescent protein (GFP) when productively infected with HIV or SIV. The cells also stably express surface CD4, CCR5 and CXCR4 (Morner et al. Journal of Virology 73:2342-2349, 1999) (NIH AIDS Research and Reference Reagent Program, Division of AIDS, NIAID, NIH).
Both cell lines are infected at the same time with HIV-1 strains 89.6 (uses both CXCR4 and CCR5), NL4-3 (uses CXCR4 only) and AD8 (uses CCR5 only) as positive controls for infection. The cells are then subjected to spinoculation—centrifugation at 1200×g for 2 hours at room temperature. The volume of media is increased to 150 μL with media and the cells are incubated for 5 days. Samples are observed for the presence of clot formation at all stages.
At day 5 post-infection, GHOST cells are washed in phosphate buffered saline (PBS), detached from the plate with Trypsin-EDTA, washed twice in FACS wash and fixed with FACS Fix. The cells are then analyzed by flow cytometry for expression of GFP as an indication of HIV-1 infection. TZMbl cells are washed in PBS and fixed for 5 mins in fixative. Cells are washed once and 50 μL of β-gal substrate is added to each well. The cells are incubated at 37° C. for 2 hours. […] Under a light microscope, the number of blue-stained (HIV-1 infected) foci are counted. Uninfected cells are analyzed as a negative/background control.

[4] = Day 5 post-infection, named anti-coagulant combination
[5] = GHOSTX4R5 cells, samples in GHOST media (n=10), plasma collected in the named anti-coagulant

| Compound | mean number of infected cells ([1]; 5 patients, ACD or EDTA added to samples) | number of patients whose virus infected GHOSTX4R5 cells [1, 4] | patient samples with viral infection observed [2] [%] | patient samples with viral infection observed [3, 5] [%] | mean number of GFP positive cells per 100,000 cells ([1]; 5 patients, blood collected in sodium heparin, compared with other anti-coagulant combinations) | mean number of infected cells ([1]; 5 patients, heparin added to samples collected in ACD or EDTA, versus ACD or EDTA alone) | number of patients whose virus infected GHOSTX4R5 cells ([1]; viral isolates derived from ACD plasma to which heparin had been added) | patient samples with viral infection observed ([3]; GHOSTX4R5 cells (n=10), plasma collected in ACD, heparin added to the resuspended plasma pellet) [%] | patient samples with viral infection observed ([3]; GHOSTX4R5 cells (n=10), samples collected in EDTA to which heparin had been added) [%] |
| --- | --- | --- | --- | --- | --- | --- | --- | --- | --- |
| O=C(O)CN(CCN(CC(=O)O)CC(=O)O)CC(=O)O [EDTA, ethylenediamine tetraacetic acid] | very low | 4 | 22 | 30 |  |  |  |  |  |
| heparin |  | 3 | 33 | 40 | highest | slightly improved | 5 | 50 | 40 |
